The text below walks through data of ChEMBL document CHEMBL1201862, “PubChem BioAssay data set” (2004).

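Tested at 5 concentrations; 48 h exposure; 96-well plates; endpoints linearly interpolated, else capped at highest concentration. Abbreviation: GI50, concentration required for 50% inhibition of growth.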 Active and inactive are the calls of the source. Rule as the data show it: active = GI50 up to about 1.1 µM and inactive = higher. Bounds are passed on as bounds.

Test systems include SK-MEL-28; BT-549; U-251; A549; SNB-75; CAKI-1; SN12C; HT-29; SK-MEL-5; DU-145; UACC-257; Hs-578T; Malme-3M; HL-60; MDA-MB-231; A498; SF-295; SK-OV-3; MDA-MB-435.
Holding throughout (assay): inhibition of tumour cell growth, NCI panel, 48 h

For the compound `CC(C)CN(CC#N)CC(C)C`, the GI50 in the test on SK-MEL-28, with BT-549, in the test with U-251, with A549, in the test on SNB-75 and in the test with CAKI-1 was > 100 µM (inactive) each time. Moreover, the GI50 with SN12C, in the test with HT-29, in the test on SK-MEL-5, in the test with DU-145, with UACC-257 and with Hs-578T was > 100 µM (inactive) throughout. In addition, the GI50 in the test on Malme-3M, in the test on HL-60, in the test with MDA-MB-231, with A498, in the test on SF-295 and in the test with SK-OV-3 was > 100 µM (inactive) throughout. In addition, the GI50 in the test on MDA-MB-435 was > 100 µM (inactive).
Turning to `CC(CC(C#N)(c1ccccc1)c1ccccc1)N1CCCCC1` (stereo not given), the GI50 in the test on SK-MEL-28 was 23.1 µM (inactive); in the test on BT-549, 29.5 µM (inactive); in the test on U-251, 29.6 µM (inactive); in the test on A549 it was 44 µM (inactive); in the test on SNB-75 it was 29.7 µM (inactive); in the test on CAKI-1 it was 39 µM (inactive). Also, the GI50 in the test with SN12C is 26 µM (inactive); in the test on HT-29, 18.3 µM (inactive); with SK-MEL-5 it was 18 µM (inactive); in the test on DU-145, 59.8 µM (inactive); in the test with UACC-257, 14.6 µM (inactive); with Hs-578T it was 27.3 µM (inactive). Also, the GI50 was 17.3 µM (inactive) with Malme-3M; 21 µM (inactive) in the test on HL-60; 25.7 µM (inactive) with MDA-MB-231; 21.6 µM (inactive) in the test on A498; 20 µM (inactive) in the test with SF-295; 65.6 µM (inactive) in the test with SK-OV-3. Moreover, the GI50 in the test on MDA-MB-435 is 19.1 µM (inactive).
`COc1ccc2nccc(/C=C/c3ccc(N(C)C)cc3)c2c1`: the GI50 with SK-MEL-28 is > 10 µM (inactive); in the test with BT-549 it was > 10 µM (inactive); with U-251, > 10 µM (inactive); with A549 it was > 10 µM (inactive); in the test with SNB-75, 6.73 µM (inactive); in the test on CAKI-1, > 10 µM (inactive). The GI50 in the test on SN12C, in the test with HT-29, with SK-MEL-5, in the test with DU-145, in the test with UACC-257 and in the test with Hs-578T was > 10 µM (inactive) throughout. Also, the GI50 with Malme-3M, with HL-60, in the test on MDA-MB-231, in the test on A498, in the test on SF-295 and with SK-OV-3 was > 10 µM (inactive) throughout. Also, the GI50 in the test with MDA-MB-435 was 2.31 µM (inactive).
On to `Cc1c2cccc-2c(OCCO)cc2c3ccccc3n(C)c12`, for which the GI50 was 3.73 µM (inactive) in the test on SK-MEL-28; 3.45 µM (inactive) in the test on BT-549; 1.87 µM (inactive) in the test on U-251; 3.76 µM (inactive) in the test on A549; 5.28 µM (inactive) in the test on SNB-75; 10.2 µM (inactive) in the test on CAKI-1. The GI50 is 3.13 µM (inactive) in the test on SN12C; 4.24 µM (inactive) with HT-29; 2.12 µM (inactive) in the test with SK-MEL-5; 6.79 µM (inactive) with DU-145; 4.36 µM (inactive) with UACC-257; 2.6 µM (inactive) in the test with Hs-578T. The GI50 with Malme-3M was 3.85 µM (inactive); with HL-60 it was 2.16 µM (inactive); with MDA-MB-231, 2.75 µM (inactive); in the test with A498, 7.59 µM (inactive); with SF-295 it was 3.67 µM (inactive); in the test on SK-OV-3, 1.58 µM (inactive). For the same compound, the GI50 in the test on MDA-MB-435 was 4.35 µM (inactive).
As to `O=C1/C(=C\c2ccc(Cl)cc2Cl)Sc2scc(-c3cccc([N+](=O)[O-])c3)[n+]21`, the GI50 in the test on SK-MEL-28 was 14.6 µM (inactive); with BT-549 it was 4.45 µM (inactive); with U-251, 13.9 µM (inactive); in the test on A549, 18.1 µM (inactive); in the test on SNB-75, 19.9 µM (inactive); in the test with CAKI-1, 3.03 µM (inactive). For the same compound, the GI50 in the test with SN12C was 5.33 µM (inactive); in the test on HT-29, 3.28 µM (inactive); in the test with SK-MEL-5 it was 2.09 µM (inactive); in the test with DU-145, 14 µM (inactive); in the test on UACC-257 it was 5.79 µM (inactive); in the test with Hs-578T, 24.7 µM (inactive). Further, the GI50 with Malme-3M was 8.11 µM (inactive); in the test with HL-60, 0.49 µM (active); with MDA-MB-231 it was 9.14 µM (inactive); with A498 it was 49 µM (inactive); in the test on SF-295, 24.9 µM (inactive); with SK-OV-3 it was 41 µM (inactive). The GI50 with MDA-MB-435 was 10 µM (inactive).
For `CC(O)(Cc1ccccc1C#N)Cc1ccccc1C#N`, the GI50 in the test on SK-MEL-28 is > 100 µM (inactive); in the test on BT-549 it was 38.5 µM (inactive); in the test on U-251 it was > 100 µM (inactive); with A549, > 100 µM (inactive); in the test on SNB-75, 37 µM (inactive); in the test on CAKI-1, > 100 µM (inactive). The GI50 in the test on SN12C is > 100 µM (inactive); in the test on HT-29 it was > 100 µM (inactive); with SK-MEL-5 it was 57.3 µM (inactive); in the test on DU-145, > 100 µM (inactive); in the test on UACC-257, 89.7 µM (inactive); with Hs-578T it was > 100 µM (inactive). Also, the GI50 in the test on Malme-3M was > 100 µM (inactive); with HL-60, 4 µM (inactive); in the test on MDA-MB-231, > 100 µM (inactive); with A498, > 100 µM (inactive); in the test on SF-295, 74 µM (inactive); in the test on SK-OV-3 it was > 100 µM (inactive). Besides, the GI50 with MDA-MB-435 was > 100 µM (inactive).
Turning to `CC1(CCCO)CCCCCCCCCC(C)(CCCO)C1=O` (stereo not given), the GI50 with SK-MEL-28 was > 100 µM (inactive); with BT-549, > 100 µM (inactive); in the test with U-251, > 100 µM (inactive); in the test on A549 it was 87.3 µM (inactive); with SNB-75, > 100 µM (inactive); in the test on CAKI-1, > 100 µM (inactive). Also, the GI50 with SN12C, with HT-29, in the test on SK-MEL-5, with DU-145, with UACC-257 and in the test on Hs-578T was > 100 µM (inactive) each time. Moreover, the GI50 in the test with Malme-3M was > 100 µM (inactive); with HL-60, 40 µM (inactive); in the test with MDA-MB-231, > 100 µM (inactive); in the test on A498 it was > 100 µM (inactive); with SF-295, > 100 µM (inactive); in the test on SK-OV-3, > 100 µM (inactive). In addition, the GI50 in the test with MDA-MB-435 is > 100 µM (inactive).
As for `Cc1ccc(CC2(OCCN(C)C)CCC(C(C)(C)C)CC2)cc1` (stereo not given), the GI50 in the test on SK-MEL-28 is 1.91 µM (inactive); in the test on BT-549 it was 6.22 µM (inactive); with U-251, 2.41 µM (inactive); with A549, 7 µM (inactive); in the test on SNB-75, 6.71 µM (inactive); in the test with CAKI-1 it was 4.21 µM (inactive). Moreover, the GI50 with SN12C was 5.97 µM (inactive); in the test with HT-29, 2.23 µM (inactive); in the test on SK-MEL-5, 1.58 µM (inactive); in the test on DU-145, 5.47 µM (inactive); with UACC-257 it was 2.09 µM (inactive); with Hs-578T it was 8.04 µM (inactive). The GI50 in the test with Malme-3M is 1.99 µM (inactive); in the test with HL-60, 2.02 µM (inactive); in the test on MDA-MB-231, 5.56 µM (inactive); in the test with A498, 11.4 µM (inactive); with SF-295, 4.54 µM (inactive); in the test with SK-OV-3 it was 11.2 µM (inactive). The GI50 in the test on MDA-MB-435 was 2.4 µM (inactive).
For `O=C(Oc1cccc2cccnc12)c1cc2cc(CCl)ccc2oc1=O`, the GI50 is 30.1 µM (inactive) with SK-MEL-28; 31.5 µM (inactive) in the test with BT-549; 24.3 µM (inactive) in the test with U-251; 27.7 µM (inactive) in the test with A549; 56 µM (inactive) with SNB-75; 29.9 µM (inactive) in the test on CAKI-1. Further, the GI50 in the test with SN12C was 10.6 µM (inactive); in the test on HT-29, 8.09 µM (inactive); in the test on SK-MEL-5, 21.9 µM (inactive); with DU-145, 20.7 µM (inactive); in the test with UACC-257 it was 6.05 µM (inactive); with Hs-578T it was 46.2 µM (inactive). Moreover, the GI50 is 15.7 µM (inactive) with Malme-3M; 3.22 µM (inactive) in the test on HL-60; 27.1 µM (inactive) with MDA-MB-231; 48.8 µM (inactive) in the test with A498; 37.4 µM (inactive) in the test on SF-295; > 100 µM (inactive) in the test on SK-OV-3. Besides, in the test with MDA-MB-435, the GI50 is 10.8 µM (inactive).
As for `CC(=O)O[C@H]1C(=O)[C@@]2(C)[C@H]([C@H](OC(=O)c3ccccc3)[C@]3(O)C[C@H](OC(=O)[C@H](O)[C@@H](NC(=O)c4ccccc4)c4ccccc4C)C(C)=C1C3(C)C)[C@]1(OC(C)=O)CO[C@@H]1C[C@@H]2O`, the GI50 in the test on SK-MEL-28 was 1.55 µM (inactive); in the test with BT-549, 0.687 µM (active); with U-251, 0.361 µM (active); with A549, 1.7 µM (inactive); in the test with SNB-75, 0.767 µM (active); in the test with CAKI-1, 5.35 µM (inactive). For the same compound, the GI50 is 2.11 µM (inactive) in the test with SN12C; 0.13 µM (active) in the test with HT-29; 0.406 µM (active) with SK-MEL-5; 1.85 µM (inactive) in the test on DU-145; 0.718 µM (active) with UACC-257; 0.222 µM (active) in the test on Hs-578T. Moreover, the GI50 is 1.66 µM (inactive) with Malme-3M; 0.0659 µM (active) in the test with HL-60; 3.18 µM (inactive) with MDA-MB-231; 0.444 µM (active) with A498; 1.16 µM (inactive) in the test with SF-295; 1.02 µM (active) in the test on SK-OV-3. Moreover, the GI50 with MDA-MB-435 was 0.07 µM (active).
